Assay [1] has as its system Calpain activity in SH-SY5Y cells. Nature of the assay: SH-SY5Y + AMC fluorescence assay (Suc-LLVY-AMC substrate). The class given is cell-based. Particulars: read-out: SH-SY5Y + AMC IC50.
The subject of assay [2] is Calpain activity in SH-SY5Y cells (SBDP-150). In words: SH-SY5Y Spectrin western blot assay (SBDP-150 breakdown product, A23187-induced). Type of assay: cell-based. The settings on record: Homo sapiens; SH-SY5Y cells, A23187-induced SBDP-150, western blot; read-out: SH-SY5Y Spectrin IC50.
A further assay addresses T1, Human Calpain 1/NS1 (Homo sapiens, UniProt P07384).
T1 sequence (P07384 1-714): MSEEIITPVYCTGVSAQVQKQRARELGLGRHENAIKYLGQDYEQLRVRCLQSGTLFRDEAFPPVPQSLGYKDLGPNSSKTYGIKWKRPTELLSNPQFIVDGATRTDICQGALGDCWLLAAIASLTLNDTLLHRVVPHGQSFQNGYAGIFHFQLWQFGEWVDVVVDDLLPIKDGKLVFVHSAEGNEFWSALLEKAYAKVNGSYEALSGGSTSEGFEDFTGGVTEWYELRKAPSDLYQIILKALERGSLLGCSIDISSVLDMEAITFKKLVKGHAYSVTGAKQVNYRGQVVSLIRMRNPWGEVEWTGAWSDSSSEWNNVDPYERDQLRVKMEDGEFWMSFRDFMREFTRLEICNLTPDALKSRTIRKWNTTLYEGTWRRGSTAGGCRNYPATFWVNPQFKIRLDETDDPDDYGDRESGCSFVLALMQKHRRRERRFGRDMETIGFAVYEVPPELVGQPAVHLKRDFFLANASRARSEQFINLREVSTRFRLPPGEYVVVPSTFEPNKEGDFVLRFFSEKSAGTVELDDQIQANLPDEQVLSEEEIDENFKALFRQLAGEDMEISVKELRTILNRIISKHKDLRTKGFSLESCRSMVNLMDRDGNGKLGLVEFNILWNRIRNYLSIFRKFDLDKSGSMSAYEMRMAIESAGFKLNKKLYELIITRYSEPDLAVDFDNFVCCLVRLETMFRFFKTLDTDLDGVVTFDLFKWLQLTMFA
T1 sequence (P04632 1-268 partner): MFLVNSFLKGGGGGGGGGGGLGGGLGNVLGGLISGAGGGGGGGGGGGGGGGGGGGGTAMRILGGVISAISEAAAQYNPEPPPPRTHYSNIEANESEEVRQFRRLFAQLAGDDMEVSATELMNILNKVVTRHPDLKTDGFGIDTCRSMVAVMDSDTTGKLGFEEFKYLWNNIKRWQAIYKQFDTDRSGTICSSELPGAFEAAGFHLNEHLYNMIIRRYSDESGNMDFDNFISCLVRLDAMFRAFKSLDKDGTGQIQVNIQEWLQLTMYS
Nature of the assay: Calpain inhibition continuous fluorescence (FRET) assay, Human Calpain 1/NS1. The class given is biochemical. Particulars: read-out: Human Calpain 1/NS1 IC50. Put shortly: (§1)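 Human calpains 1, 2 and 9 preincubated with inhibitor at 25 °C in 50 mM Tris pH 7.5, 100 mM NaCl, 1 mM DTT; reaction started with 5-FAM/QXL 520 FRET peptide plus CaCl2 for activation. Fluorescence (490/520 nm) followed 10 min; rates from 1-5 min slopes fitted to 4-parameter logistic for IC50.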

The target in the next assay is T2, Human Calpain 9/NS1 (Homo sapiens, UniProt O14815).
T2 sequence (O14815 1-690): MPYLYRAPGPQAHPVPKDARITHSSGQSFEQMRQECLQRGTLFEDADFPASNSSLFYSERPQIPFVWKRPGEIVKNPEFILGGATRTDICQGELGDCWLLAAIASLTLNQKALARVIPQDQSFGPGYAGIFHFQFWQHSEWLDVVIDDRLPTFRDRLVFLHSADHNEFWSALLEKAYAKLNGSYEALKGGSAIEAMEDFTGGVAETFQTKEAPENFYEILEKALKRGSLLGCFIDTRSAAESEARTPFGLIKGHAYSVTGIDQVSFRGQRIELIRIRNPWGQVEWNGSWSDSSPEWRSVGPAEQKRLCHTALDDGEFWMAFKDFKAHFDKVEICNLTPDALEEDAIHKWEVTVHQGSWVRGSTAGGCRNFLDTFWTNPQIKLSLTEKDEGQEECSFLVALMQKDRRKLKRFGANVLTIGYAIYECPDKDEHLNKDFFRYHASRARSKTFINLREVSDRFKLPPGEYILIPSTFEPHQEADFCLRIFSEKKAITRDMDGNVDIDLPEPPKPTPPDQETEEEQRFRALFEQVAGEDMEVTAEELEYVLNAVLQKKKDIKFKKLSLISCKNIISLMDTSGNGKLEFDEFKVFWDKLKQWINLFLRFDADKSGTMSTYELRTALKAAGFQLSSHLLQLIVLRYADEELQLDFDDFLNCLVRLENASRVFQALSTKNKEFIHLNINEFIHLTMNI
T2 sequence (P04632 1-268 partner): T1 sequence (P04632 1-268 partner)
Nature of the assay: Calpain inhibition continuous fluorescence (FRET) assay, Human Calpain 9/NS1. The class given is biochemical. Particulars: read-out: Human Calpain 9/NS1 IC50. The method, boiled down:
as §1

For another assay, the target named is T3, Human Calpain 2/NS1 (Homo sapiens, UniProt P17655).
T3 sequence (P17655 1-700): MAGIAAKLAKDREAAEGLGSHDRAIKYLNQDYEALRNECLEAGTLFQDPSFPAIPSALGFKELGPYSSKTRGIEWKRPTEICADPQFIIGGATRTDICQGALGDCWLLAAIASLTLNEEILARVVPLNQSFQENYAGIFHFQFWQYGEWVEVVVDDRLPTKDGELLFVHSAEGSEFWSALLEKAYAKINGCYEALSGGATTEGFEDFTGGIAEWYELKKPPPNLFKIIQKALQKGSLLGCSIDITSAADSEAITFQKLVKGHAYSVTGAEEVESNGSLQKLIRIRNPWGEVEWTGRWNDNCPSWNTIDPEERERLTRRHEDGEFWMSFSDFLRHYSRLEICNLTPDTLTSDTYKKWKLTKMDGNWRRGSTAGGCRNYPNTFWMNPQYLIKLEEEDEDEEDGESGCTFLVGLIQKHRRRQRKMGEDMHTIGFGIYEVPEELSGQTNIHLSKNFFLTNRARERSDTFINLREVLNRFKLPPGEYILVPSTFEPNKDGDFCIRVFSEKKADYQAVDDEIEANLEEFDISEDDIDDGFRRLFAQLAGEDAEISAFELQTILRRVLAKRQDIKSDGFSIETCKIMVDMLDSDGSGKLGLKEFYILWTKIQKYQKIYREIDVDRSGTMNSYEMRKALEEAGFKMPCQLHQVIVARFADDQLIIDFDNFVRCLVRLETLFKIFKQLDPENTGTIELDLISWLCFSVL
T3 sequence (P04632 1-268 partner): T1 sequence (P04632 1-268 partner)
In words: Calpain inhibition continuous fluorescence (FRET) assay, Human Calpain 2/NS1. Particulars: read-out: Human Calpain 2/NS1 IC50. Type of assay: biochemical. Put shortly:
as §1

Where only a bound is given, the exact number is not on record here.

As for `CC(C)CC(NC(=O)c1nsnc1-c1ccccc1)C(=O)C(N)=O` (centres unmarked) [Compound 465, N-(1-amino-5-methyl-1,2-dioxohexan-3-yl)-4-phenyl-1,2,5-thiadiazole-3-carboxamide], the IC50 is > 25 µM in assay [1]; < 10 µM in assay [2]; < 3 µM on Human Calpain 1/NS1; < 3 µM on Human Calpain 9/NS1; < 3 µM on Human Calpain 2/NS1.
As for `Cc1cc(C)cc(CC(NC(=O)c2nsnc2-c2ccccc2)C(=O)C(N)=O)c1` (centres unmarked) [Compound 466, N-(4-amino-1-(3,5-dimethylphenyl)-3,4-dioxobutan-2-yl)-4-phenyl-1,2,5-thiadiazole-3-carboxamide], the IC50 in assay [1] was > 25 µM; in assay [2], < 10 µM; at Human Calpain 1/NS1, < 3 µM; on Human Calpain 9/NS1 it was < 3 µM; on Human Calpain 2/NS1 it was < 3 µM.
Turning to `CCCCC(NC(=O)c1nsnc1-c1ccccc1)C(=O)C(N)=O` (centres unmarked) [Compound 467, N-(1-amino-1,2-dioxoheptan-3-yl)-4-phenyl-1,2,5-thiadiazole-3-carboxamide], the IC50 in assay [1] was > 25 µM; in assay [2] it was < 10 µM; at Human Calpain 1/NS1, < 3 µM; on Human Calpain 9/NS1, < 3 µM; on Human Calpain 2/NS1, < 3 µM.
For `CC(NC(=O)c1nsnc1-c1ccccc1)C(=O)C(N)=O` (centres unmarked) [Compound 468, N-(4-amino-3,4-dioxobutan-2-yl)-4-phenyl-1,2,5-thiadiazole-3-carboxamide], the IC50 in assay [1] is > 25 µM; in assay [2], < 10 µM; on Human Calpain 1/NS1, < 3 µM; on Human Calpain 9/NS1, < 3 µM; on Human Calpain 2/NS1, < 3 µM.
Regarding `CCn1cc(C(=O)NC(Cc2ccccc2)C(=O)C(N)=O)c(-c2ccccc2F)n1` (centres unmarked) [Compound 469, N-(4-amino-3,4-dioxo-1-phenylbutan-2-yl)-1-ethyl-3-(2-fluorophenyl)-1H-pyrazole-4-carboxamide], the IC50 in assay [1] is < 10 µM; in assay [2], 10 to 25 µM; on Human Calpain 1/NS1 it was < 3 µM; at Human Calpain 9/NS1, < 3 µM; on Human Calpain 2/NS1, < 3 µM.
In the case of `CCn1cc(C(=O)NC(Cc2ccccc2)C(=O)C(N)=O)c(-c2ccc(F)cc2)n1` (centres unmarked) [Compound 471, N-(4-amino-3,4-dioxo-1-phenylbutan-2-yl)-1-ethyl-3-(4-fluorophenyl)-1H-pyrazole-4-carboxamide], the IC50 is 10 to 25 µM in assay [1]; 10 to 25 µM in assay [2]; < 3 µM at Human Calpain 1/NS1; < 3 µM at Human Calpain 9/NS1; < 3 µM on Human Calpain 2/NS1.
For the compound `CC(C)n1cc(C(=O)NC(Cc2ccccc2)C(=O)C(N)=O)c(-c2ccccc2F)n1` (centres unmarked) [Compound 472, N-(4-amino-3,4-dioxo-1-phenylbutan-2-yl)-3-(2-fluorophenyl)-1-isopropyl-1H-pyrazole-4-carboxamide], the IC50 is < 10 µM in assay [1]; 10 to 25 µM in assay [2]; < 3 µM on Human Calpain 1/NS1; < 3 µM at Human Calpain 9/NS1; < 3 µM on Human Calpain 2/NS1.
Regarding `CC(C)n1cc(C(=O)NC(Cc2ccccc2)C(=O)C(N)=O)c(-c2cccc(F)c2)n1` (centres unmarked) [Compound 473, N-(4-amino-3,4-dioxo-1-phenylbutan-2-yl)-3-(3-fluorophenyl)-1-isopropyl-1H-pyrazole-4-carboxamide], the IC50 in assay [1] was 10 to 25 µM; in assay [2], 10 to 25 µM; on Human Calpain 1/NS1, < 3 µM; on Human Calpain 9/NS1, < 3 µM; on Human Calpain 2/NS1, < 3 µM.
For `CC(C)n1cc(C(=O)NC(Cc2ccccc2)C(=O)C(N)=O)c(-c2ccc(F)cc2)n1` (centres unmarked) [Compound 474, N-(4-amino-3,4-dioxo-1-phenylbutan-2-yl)-3-(4-fluorophenyl)-1-isopropyl-1H-pyrazole-4-carboxamide], the IC50 in assay [1] was 10 to 25 µM; in assay [2], 10 to 25 µM; on Human Calpain 1/NS1, < 3 µM; on Human Calpain 9/NS1 it was < 3 µM; on Human Calpain 2/NS1 it was < 3 µM.
Turning to `Cc1nc(-c2ccccc2)c(C(=O)N[C@@H](Cc2ccccc2)C(=O)CF)o1` [Compound 475, (S)—N-(4-fluoro-3-oxo-1-phenylbutan-2-yl)-2-methyl-4-phenyloxazole-5-carboxamide], the IC50 in assay [1] is > 25 µM; in assay [2], < 10 µM; at Human Calpain 1/NS1 it was 3 to 10 µM; on Human Calpain 9/NS1 it was 3 to 10 µM; at Human Calpain 2/NS1, < 3 µM.
For `Cn1cc(C(=O)N[C@@H](Cc2ccccc2)C(=O)CF)c(-c2ccccc2)n1` [Compound 476, (S)—N-(4-fluoro-3-oxo-1-phenylbutan-2-yl)-1-methyl-3-phenyl-1H-pyrazole-4-carboxamide], the IC50 in assay [1] is > 25 µM; in assay [2] it was 10 to 25 µM; at Human Calpain 1/NS1, < 3 µM; on Human Calpain 9/NS1, < 3 µM; on Human Calpain 2/NS1, < 3 µM.
Consider `Cc1cc(C(=O)N[C@@H](Cc2ccccc2)C(=O)CF)n(-c2cnccn2)n1` [Compound 477, (S)—N-(4-fluoro-3-oxo-1-phenylbutan-2-yl)-3-methyl-1-(pyrazin-2-yl)-1H-pyrazole-5-carboxamide], for which the IC50 was > 25 µM in assay [1]; 10 to 25 µM in assay [2]; 3 to 10 µM on Human Calpain 1/NS1; 3 to 10 µM at Human Calpain 9/NS1; < 3 µM at Human Calpain 2/NS1.
As to `Cc1cc(C(=O)N[C@@H](Cc2ccccc2)C(=O)CF)n(-c2ccccn2)n1` [Compound 478, (S)—N-(4-fluoro-3-oxo-1-phenylbutan-2-yl)-3-methyl-1-(pyridin-2-yl)-1H-pyrazole-5-carboxamide], the IC50 was > 25 µM in assay [1]; > 25 µM in assay [2]; < 3 µM on Human Calpain 1/NS1; 3 to 10 µM on Human Calpain 9/NS1; < 3 µM at Human Calpain 2/NS1.

These data come from patent US11339130B1 (Blade Therapeutics, Inc., priority 2016, dated 2022).
